Patent US20040234523A1, “Use of IL-18 inhibitors for the treatment and/or prevention of heart disease” (priority 2001, published 2004)
Blank lines part the entries; values can stand above or below the substance they belong to.

Key:
Type in all cases: cell-based
[1] = system: human atrial trabeculae; assay: Ischemia/reperfusion of suprafused human atrial trabeculae: postischemic developed force; settings: N=7, I/R alone 35%
Procedure: (§1) Isolated Atrial Trabeculae Patients undergoing elective coronary artery bypass surgery with a pump oxygenator require insertion of a canula into the right atrium. At that time, a small segment of the right atrial appendage is routinely excised and discarded. Trabeculae were obtained from this discarded tissue. Human atrial tissue was placed in oxygenated modified Tyrode's buffer solution at 4° C. Modified Tyrode's solution was prepared daily with deionized distilled water and contained D-glucose at 5.0 mmol/liter, CaCl2 at 2.0 mmol/liter, NaCl at 118.0 mmol/liter, KCl at 4.0 mmol/liter, MgSO4.7H2O at 1.2 mmol/liter, NaHCO3 at 25.0 mmol/liter, and NaH2PO4 at 1.2 mmol/liter. […]
Experimental Design Trabeculae were equilibrated for 90 min to increase the baseline stretch force to 1,000 mg and to allow stabilization of developed force. […] Contractions were monitored by force transducers (Grass FT03) and recorded with a computerized preamplifier and digitizer (MacLab Quad Bridge, MacLab/8e, AD Instruments, Milford, Mass.) and continuously monitored with a Macintosh computer. […]
Statisical Analysis Data are expressed as the mean±SEM. Mean changes in developed force were calculated relative to the control value at 90 min for each patient's tissue. Statistical significance of differences between groups were determined by factorial ANOVA with Bonferroni-Dunn post hoc analysis. […]

[2] = system: human peripheral blood mononuclear cells; assay: Endotoxin-induced secretion of mature IL-1β by peripheral blood mononuclear cells (ELISA)
Procedure: Reagents IL-18BPa isoform was expressed with a N-terminal (His)6 tag in Chinese hamster ovary cells and purified to homogeneity. The ability of IL-18BPa-(His)6 to neutralize IL-18 has been described (Kim et al., 2000). The ICE inhibitor (ICEi) Ac-Try-Val-Ala-Asp-chloromethylketone (YVAD) was purchased from Alexis Biochemicals (San Diego) and solubililized in DMSO at 10 mg/ml. The ICEi was diluted in Tyrode's solution before being used. On human peripheral blood mononuclear cells, the ICEi reduces endotoxin-induced secretion of mature IL-1β by 92%, as measured by ELISA (Cistron Biotechnology, Pine Brook, NJ).

[3] = system: human atrial trabeculae; assay: Developed force of human atrial trabeculae exposed to exogenous IL-18 under normoxic conditions
Procedure: Mature IL-18 (100 ng/ml) were added to atrial trabeculae throughout the 90 min experimental period. The vertical axis indicates the mean percent change from baseline developed force. The baseline was determined at the end of the equilibration period (not shown). (n=6). *P<0.05, **P<0.001 as compared to control at the same interval and for the remainder of the experimental period.
Isolated Atrial Trabeculae Patients undergoing elective coronary artery bypass surgery with a pump oxygenator require insertion of a canula into the right atrium. At that time, a small segment of the right atrial appendage is routinely excised and discarded. Trabeculae were obtained from this discarded tissue. Human atrial tissue was placed in oxygenated modified Tyrode's buffer solution at 4° C. […]
(§2) Experimental Design Trabeculae were equilibrated for 90 min to increase the baseline stretch force to 1,000 mg and to allow stabilization of developed force. […] Contractions were monitored by force transducers (Grass FT03) and recorded with a computerized preamplifier and digitizer (MacLab Quad Bridge, MacLab/8e, AD Instruments, Milford, Mass.) and continuously monitored with a Macintosh computer.
Next, the direct effect of exogenous IL-18 on myocardial contractile function was determined. […]

[4] = system: human atrial trabeculae; assay: Tissue creatine kinase (CK) activity in trabeculae exposed to TNFα, with or without IL-18BP; settings: 90 minutes of TNFα exposure alone; n=6; control 6801±276
Procedure: CK activity is expressed in units of CK activity per milligram of wet tissue weight. (n=6).
Preserved Trabecular CK Activity End reperfusion tissue (90 min) CK activity was determined as described (Kaplan et al., 1993). Tissues were homogenized in 100 vol of ice-cold isotonic extraction buffer (Cleveland et al., 1997, Kaplan et al., 1993). The assay was performed with a CK kit (Sigma) by using an automated spectrophotometer. Results are presented as units of CK activity per mg (wet weight of tissue).
Casases are often associated with apoptosis. To assess cellular viability in trabeculae exposed to TNFα, tissue intracellular creatine kinase (CK) was measured. In this assay, high CK levels indicate viable cells. As depicted in FIG. 8, control trabeculae which underwent 90 minutes of normoxic superfusion, contained 6801±276 units of CK activity per milligram of wet tissue weight. […] Trabeculae exposed to TNFα in the presence of IL-18BP contained 5605±212 units/mg of tissue. […] This was an unexpected finding since the magnitude of developed force at the end of the experimental period was similar for I/R and TNFα.

[5] = system: human atrial trabeculae; assay: Developed force of human atrial trabeculae exposed to exogenous TNFα, with or without IL-18BP; settings: TNFα 1 ng/ml alone; after 90 minutes; n=5
Procedure: TNFα and IL-18BP were added to each bath change.
as §1, with “mmol/liter. The substrate-free Tyrode's solution contained choline chloride at 7 mmol/liter to maintain osmolarity. Unless otherwise indicated, chemicals and reagents were obtained from Sigma.” for “mmol/liter.”
as §2

Substance: Ac-Try-Val-Ala-Asp-chloromethylketone [ICEi]
postischemic contractile function, percent of control ([1]; ICEi 10 μg/ml): 60%
postischemic contractile function, percent of control ([1]; ICEi 20 μg/ml): 75.8%
reduction of endotoxin-induced secretion of mature IL-1β [2]: 92%

Substance: IL-18: exogenous mature IL-18 added to atrial trabeculae
decrease in developed force ([3]; IL-18 100 ng/ml, 90 minutes continuous exposure, normoxic, n=6): 42%
potency as myocardial depressant compared with TNFα ([3]; human atrial trabeculae): not as potent a myocardial depressant as is TNFα

preserved tissue CK activity [4]: 3246±217 units/mg
Substance: TNFα
decrease in developed force compared to control [5]: 58%
